Measurements as given in US20030073683A1, “Administration of noncompetitive AMPA receptor antagonist for neuroprotection after traumatic brain injury” (priority 2001, published 2003).
Like-named read-outs stand apart in the source and are kept apart here.

Tests used:
[1] = system: global cerebral ischemia in rats; conditions: cited from earlier work
[2] = system: global ischemia in gerbils; conditions: 2.5-5 mg/kg, cited from earlier work
[3] = system: flexor reflexes in cats; conditions: in vivo; cited from earlier work
[4] = system: fluid-percussion brain injury; assay: Fluid-percussion brain injury in rats: histopathological contusion areas; format: in vivo, rat; conditions: for reduction of mean contusion area vs vehicle-treated rats: 4 mg/kg bolus + 4 mg/kg/h over 72 hr I.V.
Text: (§1) Rat Model. Fasted male Sprague-Dawley rats, weighing 290-390 g were employed. The animals were initially anesthetized with 3% halothane, 70% nitrous oxide, and a balance of oxygen. Rats were positioned in a stereotaxic frame following endotracheal intubation. A 4.8-mm craniotomy was made overlying the right parietal cortex (3.8 mm posterior to bregma and 2.5 mm lateral to midline) as previously described by Belayev et al., J. Neurotrauma, 16: 445-453 (1999) and Dietrich et al., J. Neuropathol. (Beri.) 87: 250-258 (1994). Next, a plastic injury tube was positioned over the exposed dura matter. Dental acrylic was then used to bond the injury tube to surrounding structures. After the acrylic had hardened, the injury tube was plugged with a Gelfoam sponge, the scalp closed with sutures, and the animal was returned to its cage and allowed to recover overnight.
(§2) Fluid-Percussion Brain Injury. The following day, the rats were reanesthetized with halothane, orotracheally intubated, and maintained on 70% nitrous oxide, 1.5% halothane, and a balance of oxygen. Temperature probes were inserted into the rectum (CMA/150 Temperature Controller, CMA/Microdialysis AB, Stockholm, Sweden) and the left temporalis muscle (Thermocouple Probe, Omega Engineering, Stanford, Conn.), and separate heating lamps were used to maintain rectal temperature and temporalis muscle temperature at 37.0-37.5° C. The right femoral artery and vein were catheterized for continuous blood pressure monitoring and periodic blood sampling for arterial gases, pH, hematocrit, and plasma glucose (measurements taken 15 min before TBI and 15 min after TBI). Rectal temperature and body weight was monitored before trauma and periodically for 7 days after trauma. Mean arterial blood pressure (MABP) was measured via an indwelling femoral arterial catheter connected to a precalibrated Statham pressure transducer (model P23XL, Viggo-Spectramed Inc., Oxnard, Calif., USA) and was recorded continuously (model RS3400 polygraph, Gould, Inc., Valley View, Ohio, USA). Serial measurements were made of arterial blood gases and pH (model ABL 330, Radiometer America, Inc. Westlake, Ohio, USA) and plasma glucose (model 2300 Stnt; Yellow Springs Instrument Co., Inc., Yellow Springs, Ohio, USA).
(§3) A fluid-percussion device was connected to the injury tube of the rat's skull. This device consisted of a saline-filled cylindrical Plexiglas reservoir having a rubber-coated piston at one end, a transducer housing to permit measurement of pressure transients, and a connecting device adapted to the rat's skull. Injury was induced by the descent of a pendulum, conveying a pressure transient of 1.5-2.0 atm. to the right dorsolateral parietal cortex (see Dietrich et al., J. Neuropathol. (Beri.), 87: 250-258 (1994)). Sham-operated animals (n=9) underwent similar surgical procedures but were not injured.
(§4) Drug-Infusion System. The femoral-vein cannula was tunneled subcutaneously so as to exit from the dorsal neck and was connected to a swivel device (Stoelting Co., Wood Dale, Ill., USA) attached to the roof of a spacious cage. This device allowed bi-directional rotation. PE-50 tubing extending from the other end of the device was joined to a disposable syringe attached to an infusion pump (KDS-100, KD Scientific, Boston, Mass., USA). This tethering system allowed the rats free movement without interfering with the patency of the cannula during drug administration.
(§5) Drug Administration. Talampanel (Lilly Research Laboratories, Indianapolis, Ind., USA; bolus infusion of 4 mg/kg followed by infusion of 4 mg/kg/h over 72 hr) or vehicle (40% 2-hydroxylpropyl-β-cyclodextrin solution, 0.3-ml bolus plus 0.3 ml/kg/hr over 72 hr) was administered I.V. beginning 30 min or 3 hr after trauma or sham operation.
Histopathological Analysis of Brain Trauma. Animals were allowed to survive for 7 days following fluid-percussion brain injury. […]

[5] = system: rats; assay: Preliminary experiment with continuous infusion in rats (clinical signs); format: in vivo, rat; conditions: doses of 8 and 10 mg/kg (5, 8 or 10 mg/kg tested)
Method: The dosage was chosen because talampanel has been studied in vivo in a gerbil model of global ischemia (Lodge et al., Neuropharmacology, 35: 1681-1688 (1996)). […] Therefore, the dose was reduced to about 5 mg/kg.

[6] = system: Sprague-Dawley rats; conditions: rat, in vivo
Text: Fluid-Percussion Brain Injury. The following day, the rats were reanesthetized with halothane, orotracheally intubated, and maintained on 70% nitrous oxide, 1.5% halothane, and a balance of oxygen. Temperature probes were inserted into the rectum (CMA/150 Temperature Controller, CMA/Microdialysis AB, Stockholm, Sweden) and the left temporalis muscle (Thermocouple Probe, Omega Engineering, Stanford, Conn.), and separate heating lamps were used to maintain rectal temperature and temporalis muscle temperature at 37.0-37.5° C. The right femoral artery and vein were catheterized for continuous blood pressure monitoring and periodic blood sampling for arterial gases, pH, hematocrit, and plasma glucose (measurements taken 15 min before TBI and 15 min after TBI). Rectal temperature and body weight was monitored before trauma and periodically for 7 days after trauma. Mean arterial blood pressure (MABP) was measured via an indwelling femoral arterial catheter connected to a precalibrated Statham pressure transducer (model P23XL, Viggo-Spectramed Inc., Oxnard, Calif., USA) and was recorded continuously (model RS3400 polygraph, Gould, Inc., Valley View, Ohio, USA). Serial measurements were made of arterial blood gases and pH (model ABL 330, Radiometer America, Inc. Westlake, Ohio, USA) and plasma glucose (model 2300 Stnt; Yellow Springs Instrument Co., Inc., Yellow Springs, Ohio, USA). […]

[7] = system: fluid-percussion brain injury; assay: Fluid-percussion brain injury in rats: normal pyramidal neuron counts in hippocampus; format: in vivo, rat
Text: as §1, §2, §3, §4, §5
Histopathology of Hippocampus. […]

[8] = system: severe epilepsy not responsive to other drugs; conditions: patients with severe epilepsy not responsive to other drugs; cited from earlier work
[9] = system: kindled seizures; conditions: cited from earlier work
[10] = system: conscious male Sprague-Dawley rats; assay: Cardiovascular effects in conscious rats; format: in vivo, rat; conditions: single oral doses of 0.1, 0.3, 3 or 10 mg/kg; 2 hr
Method: Talampanel was examined for potential cardiovascular effects in conscious male Sprague-Dawley rats for 2 hr, following single oral doses of 0.1, 0.3, 3 or 10 mg/kg. The cardiovascular variables measured included systolic, diastolic and mean arterial pressure, arterial pulse pressure, and heart rate. […] Thus, taken together, these in vitro and in vivo studies makes AMPA antagonists and specifically talampanel attractive candidates for a number of therapeutic indications (data not shown).

[11] = system: phenytoin-resistant status epilepticus; conditions: in vivo; cited from earlier work
[12] = treatment begun at 3 hr after trauma

SMILES: CC1=NN=C(c2ccc(N)cc2)c2cc3c(cc2C1)OCO3 [GYKI 52466, 1-(4-aminophenyl)-4-methyl-7,8-methylene-dioxy-5H-2,3-benzodiazepine]
- neuronal damage in the CA1 sector of the hippocampus ([1]; drug pretreatment but not posttreatment): significantly attenuated
- striatal neuronal damage ([1]; pretreatment or posttreatment): not affected by either drug treatment
- functional deficits (learned maze responses) ([1]; pretreatment vs posttreatment): pretreatment but not posttreatment reduced functional deficits

SMILES: CC(=O)N1N=C(c2ccc(N)cc2)c2cc3c(cc2C[C@H]1C)OCO3 [talampanel, (R)-7-acetyl-5-(4-aminophenyl)-8,9-dihydro-8-methyl-7H-1,3-dioxolo [4,5-h][2,3]benzodiazepine]
- survival of hippocampal CA1 neurons / neuroprotection after global ischemia [2]: significantly neuroprotective
- survival of hippocampal CA1 neurons / neuroprotection after global ischemia ([2]; listed as Talampanel): led to survival of hippocampal CA1 neurons
- flexor reflexes [3]: inhibited flexor reflexes
- reduction of mean contusion area vs vehicle-treated rats ([4]; bregma level −5.8 mm, treatment 30 min after trauma, 7 days after trauma): 85%
- reduction of mean contusion area vs vehicle-treated rats ([4]; bregma level −6.8 mm, treatment 30 min after trauma, 7 days after trauma): 97%
- reduction of total contusion area vs vehicle-treated rats ([4]; treatment 30 min after trauma, 7 days after trauma): 70%
- overall contusion volume ([4]; treatment 30 min after trauma, moderate fluid-percussion brain injury): significant reduction
- contusion foci in brain sections (photomicrographs) ([4]; treatment 30 min after trauma, vs vehicle-treated rats): smaller contusion foci, typically confined to the deeper cortical layers
- neuroprotective effect ([4]; treatment begun at 3 hr): lost
- contusion area at bregma levels vs vehicle-treated rats [4, 12]: reduced only at one bregma level (−6.8 mm)
- total contusion area, statistical comparison with vehicle-treated rats [4, 12]: did not differ statistically
- clinical signs [5]: clinical signs of ataxia
- mortality [6]: None of the animals died
- rectal and cranial temperatures, arterial blood gases, plasma glucose, arterial blood pressure, body weight [6]: no significant differences between groups
- numbers of normal neurons in CA1 and CA3 sectors of sham animals ([7]; sham animals, vehicle or talampanel (30 min or 3 hr)): identical in all groups
- survival of pyramidal neurons in the CA1 sector of hippocampus ([7]; treatment 30 min after trauma): increased survival
- numbers of normal neurons in CA3 sector, statistical comparison with vehicle ([7]; treatment at 30 min): did not differ statistically between groups
- normal pyramidal-neuron counts CA1 vs vehicle ([7]; treatment begun at 3 hr): almost identical in both groups
- normal pyramidal-neuron counts in the hippocampal CA3 sector vs vehicle ([7]; treatment begun at 3 hr): did not differ between groups
- ischemic damage in all three subsectors of the hippocampal CA1 sector vs vehicle ([7]; treatment starting at 30 min): significantly attenuated ischemic damage
- clinical outcome in patients [8]: positive results
- chemically kindled seizures ([9]; 12.5 mg/kg): suppressed chemically kindled seizures
- electrically kindled seizures ([9]; 20 mg/kg): suppressed
- systolic, diastolic and mean arterial pressure, arterial pulse pressure, heart rate [10]: No changes were observed
- seizures in status epilepticus [11]: arrested seizures in a dose-related manner
